# In ChEMBL document CHEMBL3758105 (J Med Chem, 2016):
# Experiments:
# [1] = molecular target: T1, Organic anion transporter 3 (Homo sapiens, UniProt Q8TCC7); assay: Inhibition of human OAT3 expressed in HEK cells assessed as reduction of [3H]-estrone sulfate uptake by radioactivity counting analysis; type: cell-based, HEK293
# T1 sequence (Q8TCC7 whole entry): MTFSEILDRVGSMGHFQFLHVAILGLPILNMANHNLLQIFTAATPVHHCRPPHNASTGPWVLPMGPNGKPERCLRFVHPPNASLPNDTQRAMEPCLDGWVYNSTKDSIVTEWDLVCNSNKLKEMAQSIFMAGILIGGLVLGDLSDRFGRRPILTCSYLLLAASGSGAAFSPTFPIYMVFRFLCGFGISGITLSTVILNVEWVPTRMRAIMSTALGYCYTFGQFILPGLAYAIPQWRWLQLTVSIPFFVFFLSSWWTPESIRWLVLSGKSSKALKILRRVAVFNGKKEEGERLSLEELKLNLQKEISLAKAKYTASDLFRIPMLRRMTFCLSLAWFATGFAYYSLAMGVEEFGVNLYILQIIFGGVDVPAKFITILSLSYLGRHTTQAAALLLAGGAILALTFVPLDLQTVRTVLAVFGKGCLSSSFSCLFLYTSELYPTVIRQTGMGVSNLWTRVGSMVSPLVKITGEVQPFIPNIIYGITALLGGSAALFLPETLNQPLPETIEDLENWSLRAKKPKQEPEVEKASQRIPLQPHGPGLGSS
# [2] = molecular target: Matrix metalloproteinase-14 (Homo sapiens, UniProt P50281); assay: Inhibition of MMP14 (unknown origin) catalytic domain using MCA-Arg-Pro-Leu-Gly-Leu-Dpa-Ala-Arg-Glu-Arg-NH2 as substrate preincubated for 60 mins followed by substrate addition by fluorescence assay
# CYP2C9 = CYP2C9 (Homo sapiens, UniProt P11712); assay: Inhibition of CYP2C9 in human liver microsomes assessed as reduction of diclofenac metabolism at 3 uM after 8 mins; type: ADME; conditions: probe diclofenac
# Sequence of CYP2C9 (P11712 whole entry): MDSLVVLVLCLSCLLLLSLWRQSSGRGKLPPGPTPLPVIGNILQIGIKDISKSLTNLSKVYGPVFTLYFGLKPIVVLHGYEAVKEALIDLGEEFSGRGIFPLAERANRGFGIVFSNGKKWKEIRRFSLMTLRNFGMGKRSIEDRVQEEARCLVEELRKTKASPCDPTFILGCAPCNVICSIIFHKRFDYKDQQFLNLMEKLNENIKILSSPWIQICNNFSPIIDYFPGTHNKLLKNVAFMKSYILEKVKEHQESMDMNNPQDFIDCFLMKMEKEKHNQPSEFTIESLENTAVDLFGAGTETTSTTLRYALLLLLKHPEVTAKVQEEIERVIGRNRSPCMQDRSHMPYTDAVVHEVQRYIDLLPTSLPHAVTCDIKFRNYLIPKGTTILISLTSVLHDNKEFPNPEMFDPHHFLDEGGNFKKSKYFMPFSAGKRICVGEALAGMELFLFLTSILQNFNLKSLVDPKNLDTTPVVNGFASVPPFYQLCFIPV
# Collagenase 3 = Collagenase 3 (Homo sapiens, UniProt P45452); assay: Inhibition of full length human recombinant MMP13 using MCA-Arg-Pro-Leu-Gly-Leu-Dpa-Ala-Arg-Glu-Arg-NH2 as substrate preincubated for 60 mins followed by substrate addition by fluorescence assay
# [3] = Clearance in Sprague-Dawley rat at 1 mg/kg, iv administered as bolus dose by LC-MS/MS analysis; type: ADME, organism-based; conditions: in vivo
# [4] = Intrinsic clearance in human liver microsomes measured over 40 mins by HPLC/MS analysis; type: ADME; conditions: read-out: CLH
# [5] = Oral bioavailability in Sprague-Dawley rat at 1 mg/kg; type: ADME, organism-based; conditions: in vivo
# Stromelysin-1 = Stromelysin-1 (Homo sapiens, UniProt P08254); assay: Inhibition of MMP3 (unknown origin) catalytic domain using MCA-Arg-Pro-Leu-Gly-Leu-Dpa-Ala-Arg-Glu-Arg-NH2 as substrate preincubated for 60 mins followed by substrate addition by fluorescence assay
# Sequence of Stromelysin-1 (P08254 whole entry, the tested form may be a part): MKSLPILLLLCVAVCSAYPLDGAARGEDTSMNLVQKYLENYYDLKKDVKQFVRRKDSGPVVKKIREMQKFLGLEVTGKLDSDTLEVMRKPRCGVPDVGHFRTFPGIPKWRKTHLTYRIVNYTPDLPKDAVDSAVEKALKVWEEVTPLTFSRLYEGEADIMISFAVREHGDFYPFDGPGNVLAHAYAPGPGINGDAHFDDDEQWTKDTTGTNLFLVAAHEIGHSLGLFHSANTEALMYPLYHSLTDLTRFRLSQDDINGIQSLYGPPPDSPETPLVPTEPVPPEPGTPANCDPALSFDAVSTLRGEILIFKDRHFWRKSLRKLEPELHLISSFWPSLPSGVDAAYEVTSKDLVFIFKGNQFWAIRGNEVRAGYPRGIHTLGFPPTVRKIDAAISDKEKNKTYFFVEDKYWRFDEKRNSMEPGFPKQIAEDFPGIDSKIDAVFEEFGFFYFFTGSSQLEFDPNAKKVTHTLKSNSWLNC
# [6] = Clearance in Sprague-Dawley rat at 0.2 mg/kg, iv administered as cassette bolus dose by LC-MS/MS analysis; type: ADME, organism-based; conditions: in vivo
# physchem = conditions: buffer, pH 7.4
# [7] = Intrinsic clearance in rat liver microsomes measured over 40 mins by HPLC/MS analysis; type: ADME; conditions: read-out: CLH
# [8] = Half life of the compound assessed as compound rearrangement; type: physicochemical
# Canis familiaris [9] = assay: Free Cmax in beagle dog at 1 mg/kg, po administered as cassette dosing; type: ADME, organism-based, Canis lupus familiaris; conditions: in vivo
# [10] = Plasma protein binding in human; type: ADME, cell-free; conditions: read-out: PPB (converted)
# [11] = Plasma protein binding in beagle dog at 1 mg/kg, po administered as cassette dosing; type: ADME, organism-based, Canis lupus familiaris; conditions: read-out: PPB (converted)
# [12] = Thermodynamic solubility of the compound in crystalline solid form in phosphate buffer at pH 7.4; type: physicochemical; conditions: read-out: Therm_solubility
# Canis familiaris [13] = assay: Free AUC in beagle dog at 1 mg/kg, po administered as cassette dosing; type: ADME, organism-based, Canis lupus familiaris; conditions: in vivo
smiles,measurement,setting,value
COc1ccc(CNC(=O)c2cc3c(=O)n(Cc4ccc(C(=O)O)cc4)cnc3cn2)cc1,IC50,[1],59000 nM
CNC(=O)[C@@H](NC(=O)[C@H](CC(C)C)[C@H](O)C(=O)NO)C(C)(C)C,IC50,[2],10000 nM
Cc1cccc(CNC(=O)c2cc(-c3nnn(C[C@H]4CC[C@H](CO)CC4)n3)cc(C)n2)c1,"inhibition at 8 min, 3 µM",CYP2C9,93%
same,Ki,Collagenase 3,47.2 nM
COc1cc(CNC(=O)c2cc(-c3nnn(C[C@@H]4CO[C@@H](CO)CO4)n3)nc(C)n2)ccc1F,clearance,[3],9.8 mL/min/kg
same,microsomal CLint,[4],< 8 µL/min/mg
same,bioavailability,[5],113%
same,Ki,Collagenase 3,4.2 nM
same,Ki,Stromelysin-1,> 10000 nM
COc1cccc(CNC(=O)c2cc(-c3nnn(C[C@H]4CC[C@H](C(N)=O)CC4)n3)cc(C)n2)c1,Ki,Collagenase 3,21.2 nM
Cc1cc(-c2nnn(C[C@H]3CC[C@H](CO)CC3)n2)cc(C(=O)NCc2ccc(F)c(C(F)(F)F)c2)n1,"inhibition at 8 min, 3 µM",CYP2C9,90%
same,Ki,Collagenase 3,6.3 nM
COc1cccc(CNC(=O)c2cc(-c3nnn(C[C@H]4CC[C@H](O)CC4)n3)cc(C)n2)c1,Ki,Collagenase 3,4.5 nM
same,Ki,Stromelysin-1,> 10000 nM
Cc1cc(-c2nnn(C[C@H]3CC[C@H](CO)CC3)n2)cc(C(=O)NCc2ccccc2)n1,"inhibition at 8 min, 3 µM",CYP2C9,78%
same,Ki,Collagenase 3,119 nM
COc1cccc(CNC(=O)c2cc(-c3nnn(C[C@H]4CC[C@H](NS(C)(=O)=O)CC4)n3)cc(C)n2)c1,clearance,[6],42.6 mL/min/kg
same,microsomal CLint,[4],< 8 µL/min/mg
same,Ki,Collagenase 3,0.25 nM
same,Ki,Stromelysin-1,> 10000 nM
COc1cccc(CNC(=O)c2cc(-c3nnn(C[C@H]4CC[C@H](C#N)CC4)n3)cc(C)n2)c1,Ki,Collagenase 3,2.7 nM
same,Ki,Stromelysin-1,7210 nM
COc1cccc(CNC(=O)c2cc(-c3nnn(C[C@H]4CC[C@@H](O)CC4)n3)cc(C)n2)c1,Ki,Collagenase 3,10.9 nM
same,Ki,Stromelysin-1,> 10000 nM
Cc1cc(-c2nnn(C[C@H]3CC[C@H](CO)CC3)n2)cc(C(=O)NCc2ccc(F)c(F)c2)n1,"inhibition at 8 min, 3 µM",CYP2C9,83%
same,Ki,Collagenase 3,29.3 nM
COc1cccc(CNC(=O)c2cc(-c3nnn(CC4CCN(S(C)(=O)=O)CC4)n3)cc(C)n2)c1,Ki,Collagenase 3,5.8 nM
same,Ki,Stromelysin-1,> 10000 nM
Cc1cc(-c2nnn(C[C@H]3CC[C@H](CO)CC3)n2)cc(C(=O)NCc2ccc(F)c(C)c2)n1,"inhibition at 8 min, 3 µM",CYP2C9,96%
same,Ki,Collagenase 3,3.8 nM
Cc1cc(-c2nnn(C[C@H]3CC[C@H](CO)CC3)n2)cc(C(=O)NCc2cccc(F)c2)n1,Ki,Collagenase 3,110 nM
Cc1cc(-c2nnn(C[C@H]3CC[C@H](CO)CC3)n2)cc(C(=O)NCc2cccc(Cl)c2)n1,Ki,Collagenase 3,38.5 nM
Cc1cc(-c2nnn(C[C@H]3CC[C@H](CO)CC3)n2)cc(C(=O)NCc2ccc(F)cc2)n1,"inhibition at 8 min, 3 µM",CYP2C9,56%
same,Ki,Collagenase 3,32.9 nM
COc1cccc(CNC(=O)c2cc(-c3nnn(C[C@H]4CC[C@@H](NS(C)(=O)=O)CC4)n3)cc(C)n2)c1,Ki,Collagenase 3,8.2 nM
same,Ki,Stromelysin-1,> 10000 nM
COc1cccc(CNC(=O)c2cc(-c3nnn(C[C@H]4CC[C@H](CO)CC4)n3)cc(C)n2)c1,clearance,[3],76.6 mL/min/kg
same,"inhibition at 8 min, 3 µM",CYP2C9,66%
same,microsomal CLint,[4],32.7 µL/min/mg
same,Ki,Collagenase 3,2.1 nM
same,logD,physchem,3.57
same,microsomal CLint,[7],94.9 µL/min/mg
same,Ki,Stromelysin-1,> 10000 nM
COc1cccc(CNC(=O)c2cc(-c3nnn(C[C@H]4CC[C@@H](CO)CC4)n3)cc(C)n2)c1,Ki,Collagenase 3,4.1 nM
same,Ki,Stromelysin-1,8730 nM
COc1cccc(CNC(=O)c2cc(-c3nnn(C[C@H]4CC[C@@H](NC(C)=O)CC4)n3)cc(C)n2)c1,Ki,Collagenase 3,1.4 nM
same,Ki,Stromelysin-1,> 10000 nM
Cc1cc(-c2nnn(C[C@H]3CC[C@H](CO)CC3)n2)cc(C(=O)NCc2ccc(F)c(Cl)c2)n1,"inhibition at 8 min, 3 µM",CYP2C9,90%
same,Ki,Collagenase 3,4 nM
COc1cc(CNC(=O)c2cc(-c3nnn(C[C@H]4CC[C@H](CO)CC4)n3)cc(C)n2)ccc1F,"inhibition at 8 min, 3 µM",CYP2C9,39%
same,Ki,Collagenase 3,1.2 nM
Cc1cc(-c2nnn(C[C@H]3CC[C@H](CO)CC3)n2)cc(C(=O)NCc2cccc(C(F)(F)F)c2)n1,"inhibition at 8 min, 3 µM",CYP2C9,94%
same,Ki,Collagenase 3,23.8 nM
COc1cccc(CNC(=O)c2cc(-c3nnn(CC4CCN(C(C)=O)CC4)n3)cc(C)n2)c1,Ki,Collagenase 3,16.6 nM
same,Ki,Stromelysin-1,> 10000 nM
COc1cccc(CNC(=O)c2cc(-c3nnn(CC4CCCCC4)n3)cc(C)n2)c1,clearance,[3],63.5 mL/min/kg
same,microsomal CLint,[4],41.7 µL/min/mg
same,Ki,Collagenase 3,33.6 nM
same,logD,physchem,4.37
same,microsomal CLint,[7],98.5 µL/min/mg
same,Ki,Stromelysin-1,> 10000 nM
COc1cccc(CNC(=O)c2cc(-c3nnn(C[C@H]4CC[C@H](NC(C)=O)CC4)n3)cc(C)n2)c1,clearance,[6],77.6 mL/min/kg
same,microsomal CLint,[4],24.7 µL/min/mg
same,Ki,Collagenase 3,2 nM
same,Ki,Stromelysin-1,> 10000 nM
Cn1c(=O)n(Cc2ccc(C(=O)O)cc2)c(=O)c2cc(C#CCc3ccccc3)ccc21,IC50,[1],18000 nM
COc1cccc(CNC(=O)c2cc(-c3nnn(C[C@H]4CC[C@H](C(=O)O)CC4)n3)cc(C)n2)c1,Ki,Stromelysin-1,> 10000 nM
Cc1cc(-c2nnn(C[C@H]3CC[C@H](C(=O)O)CC3)n2)cc(C(=O)NCc2ccc(F)cc2)n1,half-life,[8],67 h
same,IC50,[1],6000 nM
COc1cccc(CNC(=O)c2cc(-c3nnn(CC4CCCOC4)n3)cc(C)n2)c1 (racemic),Ki,Collagenase 3,16.5 nM
same,Ki,Stromelysin-1,> 10000 nM
COc1cccc(CNC(=O)c2cc(-c3nnn(C[C@H]4CO[C@H](CO)CO4)n3)nc(C)n2)c1 (racemic),fCmax,Canis familiaris [9],580 nM
same,clearance,[3],10.6 mL/min/kg
same,microsomal CLint,[4],< 8 µL/min/mg
same,bioavailability,[5],65%
same,fraction unbound,[10],0.31
same,Ki,Collagenase 3,5.8 nM
same,fraction unbound,[11],0.37
same,solubility thermodynamic,[12],237 µM
same,Ki,Stromelysin-1,> 10000 nM
same,fAUC,Canis familiaris [13],3.24 µM·h
COc1cccc(CNC(=O)c2cc(-c3nnn(CC4COCCO4)n3)cc(C)n2)c1 (racemic),clearance,[3],25.8 mL/min/kg
same,microsomal CLint,[4],< 8 µL/min/mg
same,Ki,Collagenase 3,14.1 nM
same,logD,physchem,2.49
same,microsomal CLint,[7],74 µL/min/mg
same,Ki,Stromelysin-1,> 10000 nM
COc1cccc(CNC(=O)c2cc(-c3nnn(C[C@H]4CO[C@H](CO)CO4)n3)cc(C)n2)c1 (racemic),fCmax,Canis familiaris [9],66 nM
same,clearance,[3],7.7 mL/min/kg
same,microsomal CLint,[4],< 8 µL/min/mg
same,bioavailability,[5],48%
same,fraction unbound,[10],0.14
same,Ki,Collagenase 3,11.7 nM
same,logD,physchem,2.04
same,fraction unbound,[11],0.24
same,solubility thermodynamic,[12],28 µM
same,microsomal CLint,[7],15.7 µL/min/mg
same,Ki,Stromelysin-1,> 10000 nM
same,fAUC,Canis familiaris [13],1.23 µM·h
"COc1cccc(CNC(=O)c2cc(-c3nnn(CC4CCCCO4)n3)cc(C)n2)c1 (single isomer, unassigned; (+))",Ki,Collagenase 3,16.8 nM
same,Ki,Stromelysin-1,> 10000 nM
"COc1cccc(CNC(=O)c2cc(-c3nnn(CC4CCCCO4)n3)cc(C)n2)c1 (single isomer, unassigned; (-))",clearance,[3],54.5 mL/min/kg
same,microsomal CLint,[4],53.1 µL/min/mg
same,Ki,Collagenase 3,7.7 nM
same,logD,physchem,3.22
same,microsomal CLint,[7],192 µL/min/mg
O=C(O)Cc1ccccc1Nc1c(Cl)cccc1Cl [DICLOFENAC],half-life,[8],0.5 h
